# In US10874745B2, “Antimicrobial peptides and methods of treating gram-negative pathogens: polar and non-polar face analogs” (priority 2017, dated 2020):
# Several values for one entry are separate records, joined by “and”; a condition that tells them apart may be missing. Equal entries are not always repeated. Where two headings read alike, the source gives them in different places. Non-standard residues stand in square brackets, D forms with d. Residues, ends and D or L forms follow the SMILES beside them. dDab = NCC[C@@H](N)C(=O)O
# Tests used:
# human red blood cells = test: Hemolytic activity; assay type: cell-based; details: for Hemolytic activity HC30: 18 h
# Protocol: (§1) Hemoglobin release was determined spectrophotometrically at 570 nm. […] […] […] With the peptides used in this study the inventors used the HC30/MIC ratio value to calculate the therapeutic index.
# A. baumannii strain 649 = assay type: cell-based, Acinetobacter baumannii
# Text: A critical component to the systemic use of AMPs to treat bacterial infections is the extent of AMP binding to serum proteins. In addition, since only the unbound AMP is available to interact with the therapeutic target, the extent of serum binding can have significant effects on efficacy. […] This assay estimates the in vivo bioavailability of the AMPs. […] An increase in MIC in serum is attributed to inhibition of antimicrobial activity due to serum protein binding.
# Hemolytic activity = assay type: cell-based, human; details: human, 1% human erythrocytes (red blood cells), pH 7.4
# Protocol: as §1
# [1] = test system: A. baumannii strains resistant to Polymyxin B and Colistin; assay type: cell-based
# Text: Gram-Negative Bacterial Strains used in this Study: All the A. baumannii strains used in this study were 1) obtained from the collection of Dr. Anthony A. Campagnari at the University of Buffalo and originally isolated from different patients and organs/tissues (strain 649, blood; strain 689, groin; strain 759, gluteus; strain 884, axilla; strain 985, pleural fluid); 2) were purchased from the American Type Culture Collection (ATCC, Manassas, Va., USA) (strain ATCC 17978, fatal meningitis; and strain ATCC 19606, urine); 3) obtained from MERCK (M89941, M89949, M89951, M89952, M89953, M89955 and M89963). These seven A. baumannii strains were resistant to polymyxin B and polymyxin E (Colistin).
# Measurement of Antimicrobial Activity (MIC): The minimal inhibitory concentration (MIC) is defined as the lowest peptide concentration that inhibited bacterial growth. MICs were measured by a standard microtiter dilution method in Mueller Hinton (MH) medium. Briefly, cells were grown overnight at 37° C. in MH broth and were diluted in the same medium. […] The plates were incubated at 37° C. for 24 h, and the MICs were determined.
Structure (SMILES),Hemolytic activity HC30 (human red blood cells),"MIC, 25% human serum (A. baumannii strain 649)","MIC, No serum (A. baumannii strain 649)",further results
CC(=O)N[C@H](C)C(=O)N[C@H](CC(C)C)C(=O)N[C@H](CCCCN)C(=O)N[C@H](CO)C(=O)N[C@H](CC(C)C)C(=O)N[C@H](CC(C)C)C(=O)N[C@H](CCCCN)C(=O)N[C@@H](C(=O)N[C@H](CC(C)C)C(=O)N[C@H](CO)C(=O)N[C@H](C)C(=O)N[C@H](C)C(=O)N[C@H](CCCCN)C(=O)N[C@H](CCCCN)C(=O)N[C@H](CCCCN)C(=O)N[C@H](CCCCN)C(=O)N[C@H](CC(C)C)C(=O)N[C@H](C)C(=O)N[C@@H](C(=O)N[C@H](CC(C)C)C(=O)N[C@H](CC(C)C)C(=O)N[C@H](CCCCN)C(=O)N[C@H](C)C(=O)N[C@H](CC(C)C)C(=O)N[C@H](CO)C(=O)N[C@H](CCCCN)C(N)=O)[C@H](C)O)[C@H](C)O [Peptide D34],126 µM,1.4 µM,0.2 µM,
CC(=O)N[C@H](C)C(=O)N[C@H](CC(C)C)C(=O)N[C@H](CCCCN)C(=O)N[C@H](CO)C(=O)N[C@H](CC(C)C)C(=O)N[C@H](CC(C)C)C(=O)N[C@H](CCCCN)C(=O)N[C@@H](C(=O)N[C@H](CC(C)C)C(=O)N[C@H](CO)C(=O)N[C@H](CCCCN)C(=O)N[C@H](C)C(=O)N[C@H](C)C(=O)N[C@H](C)C(=O)N[C@H](C)C(=O)N[C@H](C)C(=O)N[C@H](CC(C)C)C(=O)N[C@H](CCCCN)C(=O)N[C@@H](C(=O)N[C@H](CC(C)C)C(=O)N[C@H](CC(C)C)C(=O)N[C@H](CCCCN)C(=O)N[C@H](C)C(=O)N[C@H](CC(C)C)C(=O)N[C@H](CO)C(=O)N[C@H](CCCCN)C(N)=O)[C@H](C)O)[C@H](C)O [Peptide D37],2.6 µM,>92.8 µM,2.9 µM,
CC(=O)N[C@H](C)C(=O)N[C@H](CC(C)C)C(=O)N[C@H](CCCCN)C(=O)N[C@H](CO)C(=O)N[C@H](CC(C)C)C(=O)N[C@H](CC(C)C)C(=O)N[C@H](CCCCN)C(=O)N[C@@H](C(=O)N[C@H](CC(C)C)C(=O)N[C@H](CO)C(=O)N[C@H](C)C(=O)N[C@H](C)C(=O)N[C@H](C)C(=O)N[C@H](CCCCN)C(=O)N[C@H](CCCCN)C(=O)N[C@H](C)C(=O)N[C@H](CC(C)C)C(=O)N[C@H](C)C(=O)N[C@@H](C(=O)N[C@H](CC(C)C)C(=O)N[C@H](CC(C)C)C(=O)N[C@H](CCCCN)C(=O)N[C@H](C)C(=O)N[C@H](CC(C)C)C(=O)N[C@H](CO)C(=O)N[C@H](CCCCN)C(N)=O)[C@H](C)O)[C@H](C)O [Peptide D38],2.8 µM,>92.8 µM,0.7 µM,
CC(=O)N[C@H](C)C(=O)N[C@H](CC(C)C)C(=O)N[C@H](CCCCN)C(=O)N[C@H](CO)C(=O)N[C@H](CC(C)C)C(=O)N[C@H](CC(C)C)C(=O)N[C@H](C)C(=O)N[C@@H](C(=O)N[C@H](CC(C)C)C(=O)N[C@H](CO)C(=O)N[C@H](CCCCN)C(=O)N[C@H](C)C(=O)N[C@H](CCCCN)C(=O)N[C@H](CCCCN)C(=O)N[C@H](CCCCN)C(=O)N[C@H](CCCCN)C(=O)N[C@H](CC(C)C)C(=O)N[C@H](CCCCN)C(=O)N[C@@H](C(=O)N[C@H](CC(C)C)C(=O)N[C@H](CC(C)C)C(=O)N[C@H](C)C(=O)N[C@H](C)C(=O)N[C@H](CC(C)C)C(=O)N[C@H](CO)C(=O)N[C@H](CCCCN)C(N)=O)[C@H](C)O)[C@H](C)O [Peptide D35],30 µM,1.4 µM,0.4 µM,
CC(=O)N[C@H](C)C(=O)N[C@H](CC(C)C)C(=O)N[C@H](CCCCN)C(=O)N[C@H](CO)C(=O)N[C@H](CC(C)C)C(=O)N[C@H](CC(C)C)C(=O)N[C@H](CCCCN)C(=O)N[C@@H](C(=O)N[C@H](CC(C)C)C(=O)N[C@H](CO)C(=O)N[C@H](CCCCN)C(=O)N[C@H](C)C(=O)N[C@H](CCCCN)C(=O)N[C@H](C)C(=O)N[C@H](C)C(=O)N[C@H](CCCCN)C(=O)N[C@H](CC(C)C)C(=O)N[C@H](CCCCN)C(=O)N[C@@H](C(=O)N[C@H](CC(C)C)C(=O)N[C@H](CC(C)C)C(=O)N[C@H](CCCCN)C(=O)N[C@H](C)C(=O)N[C@H](CC(C)C)C(=O)N[C@H](CO)C(=O)N[C@H](CCCCN)C(N)=O)[C@H](C)O)[C@H](C)O [Peptide D33],89 µM,0.7 µM,0.1 µM,
CC(=O)N[C@H](C)C(=O)N[C@H](CC(C)C)C(=O)N[C@H](CCCCN)C(=O)N[C@H](CO)C(=O)N[C@H](CC(C)C)C(=O)N[C@H](CC(C)C)C(=O)N[C@H](C)C(=O)N[C@@H](C(=O)N[C@H](CC(C)C)C(=O)N[C@H](CO)C(=O)N[C@H](CCCCN)C(=O)N[C@H](C)C(=O)N[C@H](C)C(=O)N[C@H](CCCCN)C(=O)N[C@H](CCCCN)C(=O)N[C@H](C)C(=O)N[C@H](CC(C)C)C(=O)N[C@H](CCCCN)C(=O)N[C@@H](C(=O)N[C@H](CC(C)C)C(=O)N[C@H](CC(C)C)C(=O)N[C@H](C)C(=O)N[C@H](C)C(=O)N[C@H](CC(C)C)C(=O)N[C@H](CO)C(=O)N[C@H](CCCCN)C(N)=O)[C@H](C)O)[C@H](C)O [Peptide D39],2.8 µM,>92.8 µM,1.4 µM,
"CC(=O)N[C@H](CCCCN)C(=O)N[C@H](CC(C)C)C(=O)N[C@H](CCN)C(=O)N[C@H](CO)C(=O)N[C@H](CC(C)C)C(=O)N[C@H](CC(C)C)C(=O)N[C@H](CCN)C(=O)N[C@@H](C(=O)N[C@H](CC(C)C)C(=O)N[C@H](CO)C(=O)N[C@H](CCN)C(=O)N[C@H](C)C(=O)N[C@H](CCCCN)C(=O)N[C@H](C)C(=O)N[C@H](C)C(=O)N[C@H](CCCCN)C(=O)N[C@H](CC(C)C)C(=O)N[C@H](CCN)C(=O)N[C@@H](C(=O)N[C@H](CC(C)C)C(=O)N[C@H](CC(C)C)C(=O)N[C@H](CCN)C(=O)N[C@H](C)C(=O)N[C@H](CC(C)C)C(=O)N[C@H](CO)C(=O)N[C@H](CCN)C(N)=O)[C@H](C)O)[C@H](C)O [Peptide D86, Ac-KL(Dbu)SLL(Dbu)TLS(Dbu)AKAAKL(Dbu)TLL(Dbu)ALS(Dbu)-amide] (Ac-[dK][dL][dDab][dS][dL][dL][dDab][dT][dL][dS][dDab][dA][dK][dA][dA][dK][dL][dDab][dT][dL][dL][dDab][dA][dL][dS][dDab]-NH2)",,,,HC50 at 18 h (Hemolytic activity): > 2000 µg/mL and > 742 µM; HC50 (human red blood cells): >741.5 µM; HC50 (human red blood cells; 50% hemolysis of human red blood cells after 18 hours at 37° C.): > 742 µM; MIC ([1]; strain MB9941 (Table 9C)): 0.7 µM; MIC ([1]; strain MB9949 (Table 9C)): 0.7 µM; MIC ([1]; strain MB9951 (Table 9C)): 1.4 µM; MIC ([1]; strain MB9952 (Table 9C)): 0.7 µM; MIC ([1]; strain MB9953 (Table 9C)): 1.4 µM; MIC ([1]; strain MB9955 (Table 9C)): 0.7 µM; MIC ([1]; strain MB9963 (Table 9C)): 1.4 µM
CC(=O)N[C@H](C)C(=O)N[C@H](CC(C)C)C(=O)N[C@H](C)C(=O)N[C@H](CO)C(=O)N[C@H](CC(C)C)C(=O)N[C@H](CC(C)C)C(=O)N[C@H](CCCCN)C(=O)N[C@@H](C(=O)N[C@H](CC(C)C)C(=O)N[C@H](CO)C(=O)N[C@H](CCCCN)C(=O)N[C@H](C)C(=O)N[C@H](C)C(=O)N[C@H](CCCCN)C(=O)N[C@H](CCCCN)C(=O)N[C@H](C)C(=O)N[C@H](CC(C)C)C(=O)N[C@H](CCCCN)C(=O)N[C@@H](C(=O)N[C@H](CC(C)C)C(=O)N[C@H](CC(C)C)C(=O)N[C@H](CCCCN)C(=O)N[C@H](C)C(=O)N[C@H](CC(C)C)C(=O)N[C@H](CO)C(=O)N[C@H](C)C(N)=O)[C@H](C)O)[C@H](C)O [Peptide D40],2.8 µM,>92.8 µM,2.9 µM,
"CC(=O)N[C@H](CCCCN)C(=O)N[C@H](CC(C)C)C(=O)N[C@H](CCCCN)C(=O)N[C@H](CO)C(=O)N[C@H](CC(C)C)C(=O)N[C@H](CC(C)C)C(=O)N[C@H](CCCCN)C(=O)N[C@@H](C(=O)N[C@H](CC(C)C)C(=O)N[C@H](CO)C(=O)N[C@H](C)C(=O)N[C@H](C)C(=O)N[C@H](CCCCN)C(=O)N[C@H](CCCCN)C(=O)N[C@H](CCCCN)C(=O)N[C@H](CCCCN)C(=O)N[C@H](CC(C)C)C(=O)N[C@H](C)C(=O)N[C@@H](C(=O)N[C@H](CC(C)C)C(=O)N[C@H](CC(C)C)C(=O)N[C@H](CCCCN)C(=O)N[C@H](C)C(=O)N[C@H](CC(C)C)C(=O)N[C@H](CO)C(=O)N[C@H](CCCCN)C(N)=O)[C@H](C)O)[C@H](C)O [Peptide D88, Ac-KL(Lys)SLL(Lys)TLSAAK(Lys)(Lys)KLATLL(Lys)ALS(Lys)-amide] (Ac-[dK][dL][dK][dS][dL][dL][dK][dT][dL][dS][dA][dA][dK][dK][dK][dK][dL][dA][dT][dL][dL][dK][dA][dL][dS][dK]-NH2)",,,,HC50 at 18 h (Hemolytic activity): 231 µg/mL and 80.6 µM; HC50 (human red blood cells): 80.6 µM; MIC ([1]; strain MB9941 (Table 9C)): 0.7 µM; MIC ([1]; strain MB9949 (Table 9C)): 0.7 µM; MIC ([1]; strain MB9951 (Table 9C)): 0.3 µM; MIC ([1]; strain MB9952 (Table 9C)): 0.3 µM; MIC ([1]; strain MB9953 (Table 9C)): 0.3 µM; MIC ([1]; strain MB9955 (Table 9C)): 0.3 µM; MIC ([1]; strain MB9963 (Table 9C)): 0.3 µM
CC(=O)N[C@H](C)C(=O)N[C@H](CC(C)C)C(=O)N[C@H](C)C(=O)N[C@H](CO)C(=O)N[C@H](CC(C)C)C(=O)N[C@H](CC(C)C)C(=O)N[C@H](CCCCN)C(=O)N[C@@H](C(=O)N[C@H](CC(C)C)C(=O)N[C@H](CO)C(=O)N[C@H](CCCCN)C(=O)N[C@H](C)C(=O)N[C@H](CCCCN)C(=O)N[C@H](CCCCN)C(=O)N[C@H](CCCCN)C(=O)N[C@H](CCCCN)C(=O)N[C@H](CC(C)C)C(=O)N[C@H](CCCCN)C(=O)N[C@@H](C(=O)N[C@H](CC(C)C)C(=O)N[C@H](CC(C)C)C(=O)N[C@H](CCCCN)C(=O)N[C@H](C)C(=O)N[C@H](CC(C)C)C(=O)N[C@H](CO)C(=O)N[C@H](C)C(N)=O)[C@H](C)O)[C@H](C)O [Peptide D36],61 µM,0.7 µM,0.4 µM,
